Results from paper PMC6053601, “The role of the jaw subdomain of peptidoglycan glycosyltransferases for lipid II polymerization” (The Cell Surface, 2018).

Key:
[1] = molecular target: T1, Staphylococcus aureus monofunctional glycosyltransferase (SaMGT) (Staphylococcus aureus, UniProt Q7A0I6); experiment: ITC (VP-ITC, […] °C, sequential binding site model)
T1 construct: gene mgt; wild-type full-length SaMGT (residues Q28-R269)

[2] = molecular target: T2, Staphylococcus aureus monofunctional glycosyltransferase (SaMGT) (Staphylococcus aureus, UniProt Q7A0I6, E100Q); experiment: X-ray crystal structure, […] Å (re-refinement of 3HZS, polder omit maps); type: binding
T2 construct: gene mgt

For C=C(C/C=C(\C)CCC=C(C)C)CCC(C)(C)/C=C/CC/C(C)=C\CO[C@H](COP(=O)(O)O[C@H]1O[C@H](C(N)=O)[C@@](C)(O)[C@H](OC(N)=O)[C@H]1O[C@@H]1O[C@H](CO[C@@H]2O[C@H](CO)[C@@H](O)[C@H](O)[C@H]2O)[C@@H](O[C@@H]2O[C@H](C)[C@@H](O[C@@H]3O[C@H](C(=O)NC4=C(O)CCC4=O)[C@H](O)[C@H](O)[C@H]3O)[C@H](O)[C@H]2NC(C)=O)[C@H](O)[C@H]1NC(C)=O)C(=O)O [MoeA, moenomycin A], the Kd [1] was 540 nM and the “X-ray crystal structure, 2.1 Å (re-refinement of 3HZS, polder omit maps)” value [2] was “Overall view of the re-refined structure of SaMGT E100Q mutant with bound MoeA (PDB ID code 6FTB)”.
